Patent US20070049564A1 (Wyeth, priority 2005, published 2007)
≈ marks a conversion by molar mass, not a printed value. Like-named read-outs stand apart in the source and are kept apart here.

Legend:
E. coli GC 2236 = assay: MIC, broth microdilution; settings: Escherichia coli
E. coli GC 2233 = assay: MIC, broth microdilution; settings: Escherichia coli
E. coli GC 2234 = assay: MIC, broth microdilution; settings: Escherichia coli
E. coli GC 2272 = assay: MIC, broth microdilution; settings: Escherichia coli
E. coli GC 6465 = assay: MIC, broth microdilution; settings: Escherichia coli
E. coli GC 1073 = assay: MIC, broth microdilution; settings: Escherichia coli
S. aureus GC 1131 = assay: MIC, broth microdilution; settings: Staphylococcus aureus
S. aureus GC 6466 = assay: MIC, broth microdilution; settings: Staphylococcus aureus
S. aureus GC 1079 = assay: MIC, broth microdilution; settings: Staphylococcus aureus
S. aureus GC 4536 = assay: MIC, broth microdilution; settings: Staphylococcus aureus
S. aureus GC 6469 = assay: MIC, broth microdilution; settings: Staphylococcus aureus
S. epidermidis GC 4935 = assay: MIC, broth microdilution; settings: Staphylococcus epidermidis
E. faecalis GC 4555 = assay: MIC, broth microdilution; settings: Enterococcus faecalis
E. faecalis GC 2265 = assay: MIC, broth microdilution; settings: Enterococcus faecalis
E. faecium GC 2243 = assay: MIC, broth microdilution; settings: Enterococcus faecium
S. pneumoniae+ GC 4465 = assay: MIC, broth microdilution; settings: Streptococcus pneumoniae
S. pyogenes GC 4563 = assay: MIC, broth microdilution; settings: Streptococcus pyogenes
c. albicans GC 3066 = assay: MIC, broth microdilution
E. coli = assay: Range of MIC for E. coli strains; settings: Escherichia coli
Staph. = assay: Range of MIC for Staph. strains, including MRSA; settings: Staphylococcus aureus

## CCCCC(=O)OCOC(=O)N(CC(=O)Nc1cc(N(C)C)c2c(c1O)C(=O)C1=C(O)[C@]3(O)C(=O)C(C(N)=O)=C(O)[C@@H](N(C)C)[C@@H]3C[C@@H]1C2)C(C)(C)C [Example 61, ({[(2-{[(5aR,6aS,7S,10aS)-9-(aminocarbonyl)-4,7-bis(dimethylamino)-1,8,10a,11-tetrahydroxy-10,12-dioxo-5,5a,6,6a,7,10,10a,12-octahydrotetracen-2-yl]amino}-2-oxoethyl)(tert-butyl)amino]carbonyl}oxy)methyl pentanoate]
E. coli GC 2236; GC2236, pre-incubation in human serum
  MIC: 4 µg/mL (≈ 5.38 µM)
E. coli GC 2236; GC2236, pre-incubation in mouse serum
  MIC: 0.5 µg/mL (≈ 0.672 µM)
E. coli GC 2236; GC2236, pre-incubation in water
  MIC: 16 µg/mL (≈ 21.5 µM)
E. coli GC 2233; GC2233, pre-incubation in human serum
  MIC: 8 µg/mL (≈ 10.8 µM)
E. coli GC 2233; GC2233, pre-incubation in mouse serum
  MIC: 1 µg/mL (≈ 1.34 µM)
E. coli GC 2233; GC2233, pre-incubation in water
  MIC: 16 µg/mL (≈ 21.5 µM)
E. coli GC 2234; GC2234, pre-incubation in human serum
  MIC: 8 µg/mL (≈ 10.8 µM)
E. coli GC 2234; GC2234, pre-incubation in mouse serum
  MIC: 0.5 µg/mL (≈ 0.672 µM)
E. coli GC 2234; GC2234, pre-incubation in water
  MIC: 16 µg/mL (≈ 21.5 µM)
E. coli GC 2272; GC2272, pre-incubation in human serum
  MIC: 4 µg/mL (≈ 5.38 µM)
E. coli GC 2272; GC2272, pre-incubation in mouse serum
  MIC: 0.5 µg/mL (≈ 0.672 µM)
E. coli GC 2272; GC2272, pre-incubation in water
  MIC: 8 µg/mL (≈ 10.8 µM)
E. coli GC 6465; GC6465, pre-incubation in human serum
  MIC: 32 µg/mL (≈ 43 µM)
E. coli GC 6465; GC6465, pre-incubation in mouse serum
  MIC: 1 µg/mL (≈ 1.34 µM)
E. coli GC 6465; GC6465, pre-incubation in water
  MIC: > 64 µg/mL
E. coli GC 1073; GC1073, pre-incubation in human serum
  MIC: 8 µg/mL (≈ 10.8 µM)
E. coli GC 1073; GC1073, pre-incubation in mouse serum
  MIC: 0.5 µg/mL (≈ 0.672 µM)
E. coli GC 1073; GC1073, pre-incubation in water
  MIC: 32 µg/mL (≈ 43 µM)
S. aureus GC 1131; GC1131, pre-incubation in human serum
  MIC: 0.5 µg/mL (≈ 0.672 µM)
S. aureus GC 1131; GC1131, pre-incubation in mouse serum
  MIC: 0.5 µg/mL (≈ 0.672 µM)
S. aureus GC 1131; GC1131, pre-incubation in water
  MIC: 0.5 µg/mL (≈ 0.672 µM)
S. aureus GC 6466; GC6466, pre-incubation in human serum
  MIC: 0.5 µg/mL (≈ 0.672 µM)
S. aureus GC 6466; GC6466, pre-incubation in mouse serum
  MIC: 0.5 µg/mL (≈ 0.672 µM)
S. aureus GC 6466; GC6466, pre-incubation in water
  MIC: 0.5 µg/mL (≈ 0.672 µM)
S. aureus GC 1079; GC1079, pre-incubation in human serum
  MIC: 0.5 µg/mL (≈ 0.672 µM)
S. aureus GC 1079; GC1079, pre-incubation in mouse serum
  MIC: 0.25 µg/mL (≈ 0.336 µM)
S. aureus GC 1079; GC1079, pre-incubation in water
  MIC: 1 µg/mL (≈ 1.34 µM)
S. aureus GC 4536; GC4536, pre-incubation in human serum
  MIC: 0.5 µg/mL (≈ 0.672 µM)
S. aureus GC 4536; GC4536, pre-incubation in mouse serum
  MIC: 0.5 µg/mL (≈ 0.672 µM)
S. aureus GC 4536; GC4536, pre-incubation in water
  MIC: 0.5 µg/mL (≈ 0.672 µM)
S. aureus GC 6469; GC6469, pre-incubation in human serum
  MIC: 0.5 µg/mL (≈ 0.672 µM)
S. aureus GC 6469; GC6469, pre-incubation in mouse serum
  MIC: 0.5 µg/mL (≈ 0.672 µM)
S. aureus GC 6469; GC6469, pre-incubation in water
  MIC: 2 µg/mL (≈ 2.69 µM)
S. epidermidis GC 4935; GC4935, pre-incubation in human serum
  MIC: 1 µg/mL (≈ 1.34 µM)
S. epidermidis GC 4935; GC4935, pre-incubation in mouse serum
  MIC: 0.5 µg/mL (≈ 0.672 µM)
S. epidermidis GC 4935; GC4935, pre-incubation in water
  MIC: 1 µg/mL (≈ 1.34 µM)
E. faecalis GC 4555; GC4555, pre-incubation in human serum
  MIC: 2 µg/mL (≈ 2.69 µM)
E. faecalis GC 4555; GC4555, pre-incubation in mouse serum
  MIC: 1 µg/mL (≈ 1.34 µM)
E. faecalis GC 4555; GC4555, pre-incubation in water
  MIC: 2 µg/mL (≈ 2.69 µM)
E. faecalis GC 2265; GC2265, pre-incubation in human serum
  MIC: 2 µg/mL (≈ 2.69 µM)
E. faecalis GC 2265; GC2265, pre-incubation in mouse serum
  MIC: 0.5 µg/mL (≈ 0.672 µM)
E. faecalis GC 2265; GC2265, pre-incubation in water
  MIC: 2 µg/mL (≈ 2.69 µM)
E. faecium GC 2243; GC2243, pre-incubation in human serum
  MIC: 1 µg/mL (≈ 1.34 µM)
E. faecium GC 2243; GC2243, pre-incubation in mouse serum
  MIC: 0.25 µg/mL (≈ 0.336 µM)
E. faecium GC 2243; GC2243, pre-incubation in water
  MIC: 0.5 µg/mL (≈ 0.672 µM)
S. pneumoniae+ GC 4465; pre-incubation in human serum
  MIC: 0.5 µg/mL (≈ 0.672 µM)
S. pneumoniae+ GC 4465; pre-incubation in mouse serum
  MIC: 0.5 µg/mL (≈ 0.672 µM)
S. pneumoniae+ GC 4465; pre-incubation in water
  MIC: 0.5 µg/mL (≈ 0.672 µM)
S. pyogenes GC 4563; GC4563, pre-incubation in human serum
  MIC: 0.25 µg/mL (≈ 0.336 µM)
S. pyogenes GC 4563; GC4563, pre-incubation in mouse serum
  MIC: 0.25 µg/mL (≈ 0.336 µM)
S. pyogenes GC 4563; GC4563, pre-incubation in water
  MIC: 0.5 µg/mL (≈ 0.672 µM)
c. albicans GC 3066; Candida albicans, GC3066
  MIC: > 64 µg/mL
c. albicans GC 3066; pre-incubation in human serum
  MIC: >64 UG/ML
c. albicans GC 3066; pre-incubation in mouse serum
  MIC: >64 UG/ML
E. coli; 20 h, read-out: Range of MIC, E. coli (Mouse Serum)
  MIC: 0.5 to 1 µg/mL (≈ 0.672 to 1.34 µM)
E. coli; read-out: Minimum inhibitory concentration (MIC), E. coli (Human Serum)
  MIC: 4 to 32 µg/mL (≈ 5.38 to 43 µM)
Staph.; MRSA, read-out: Range of MIC, Staph (Mouse Serum)
  MIC: 0.25 to 0.5 µg/mL (≈ 0.336 to 0.672 µM)
Staph.; MRSA, read-out: Range of MIC, Staph (Water)
  MIC: 0.5 to 2 µg/mL (≈ 0.672 to 2.69 µM)
Staph.; read-out: Minimum inhibitory concentration (MIC), Staph (Human Serum)
  MIC: 0.5 to 1 µg/mL (≈ 0.672 to 1.34 µM)
Staph.; read-out: Minimum inhibitory concentration (MIC), Staph (Water)
  MIC: 0.5 to 2 µg/mL (≈ 0.672 to 2.69 µM)
